Reference: ChEMBL document CHEMBL1201862, “PubChem BioAssay data set” (2004)
The source made the active and inactive calls.

Experiments:
[1] = target: T1, Replicative DNA helicase DnaB (Mycobacterium tuberculosis, UniProt P9WMR3); experiment: DnaB intein splicing inhibitors, dose response, biochemical, cell-free fluorescence (AID 449749); type: functional
T1 sequence (P9WMR3 whole entry): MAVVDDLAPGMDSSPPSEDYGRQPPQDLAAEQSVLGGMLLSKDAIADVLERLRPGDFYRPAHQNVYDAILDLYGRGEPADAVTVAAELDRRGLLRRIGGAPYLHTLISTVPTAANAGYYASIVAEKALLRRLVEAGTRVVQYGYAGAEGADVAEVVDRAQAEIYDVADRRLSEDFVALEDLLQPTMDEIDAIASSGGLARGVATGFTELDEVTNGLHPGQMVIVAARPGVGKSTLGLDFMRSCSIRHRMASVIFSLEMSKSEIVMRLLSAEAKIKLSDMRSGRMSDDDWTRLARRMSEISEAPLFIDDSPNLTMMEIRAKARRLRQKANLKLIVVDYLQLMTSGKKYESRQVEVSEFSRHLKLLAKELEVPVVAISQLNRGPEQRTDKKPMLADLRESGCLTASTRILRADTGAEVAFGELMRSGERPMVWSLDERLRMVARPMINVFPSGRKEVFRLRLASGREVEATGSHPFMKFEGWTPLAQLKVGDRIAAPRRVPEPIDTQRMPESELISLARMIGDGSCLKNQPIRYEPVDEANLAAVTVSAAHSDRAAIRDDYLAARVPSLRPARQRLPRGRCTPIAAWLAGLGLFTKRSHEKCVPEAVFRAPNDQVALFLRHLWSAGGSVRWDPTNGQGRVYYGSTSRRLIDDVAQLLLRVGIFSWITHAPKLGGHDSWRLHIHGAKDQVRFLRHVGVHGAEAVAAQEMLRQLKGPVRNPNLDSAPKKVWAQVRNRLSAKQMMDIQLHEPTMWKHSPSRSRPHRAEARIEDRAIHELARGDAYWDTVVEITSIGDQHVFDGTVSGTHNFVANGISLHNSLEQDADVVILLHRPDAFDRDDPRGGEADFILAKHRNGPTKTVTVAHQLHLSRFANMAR

Protein RecA = target: T2, Protein RecA (Mycobacterium tuberculosis, UniProt P9WHJ3); experiment: Fluorescence Cell-Free Homogeneous Dose Retest to Identify Inhibitors of RecA-Intein Splicing Activity. [Related pubchem assays (depositor defined):AID2097, AID2223, AID489010, AID492950]; type: functional
T2 sequence (P9WHJ3 whole entry): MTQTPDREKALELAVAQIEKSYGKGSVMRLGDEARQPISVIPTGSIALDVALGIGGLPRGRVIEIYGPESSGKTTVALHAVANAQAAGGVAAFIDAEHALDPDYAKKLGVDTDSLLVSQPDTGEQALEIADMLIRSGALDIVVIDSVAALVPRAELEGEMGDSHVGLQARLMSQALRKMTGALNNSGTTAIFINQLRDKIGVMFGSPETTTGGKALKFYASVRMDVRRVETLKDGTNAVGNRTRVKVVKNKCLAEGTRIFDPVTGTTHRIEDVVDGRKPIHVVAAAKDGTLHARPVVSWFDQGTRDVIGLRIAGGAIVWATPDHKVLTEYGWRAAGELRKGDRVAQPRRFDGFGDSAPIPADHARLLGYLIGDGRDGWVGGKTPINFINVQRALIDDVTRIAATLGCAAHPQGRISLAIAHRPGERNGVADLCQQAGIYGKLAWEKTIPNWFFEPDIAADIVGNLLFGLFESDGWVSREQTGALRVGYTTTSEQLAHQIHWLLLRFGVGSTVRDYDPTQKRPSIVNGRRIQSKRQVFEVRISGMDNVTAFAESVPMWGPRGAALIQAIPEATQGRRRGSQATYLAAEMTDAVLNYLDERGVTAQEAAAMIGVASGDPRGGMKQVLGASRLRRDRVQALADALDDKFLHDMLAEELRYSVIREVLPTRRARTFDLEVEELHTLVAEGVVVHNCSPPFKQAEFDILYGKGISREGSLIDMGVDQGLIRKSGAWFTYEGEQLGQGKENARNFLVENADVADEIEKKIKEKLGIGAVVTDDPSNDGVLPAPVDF

INS1 = experiment: INS-1E survival protection against cytokine death – cell-based, luminescence, retest, dose response (AID 449756); type: functional; settings: Rattus norvegicus;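 further: cell death triggered by IL-1 beta plus TNF-alpha plus IFN-gamma mixture; protective hits raise ATP signal compared with cytokine alone wells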
[2] = target: T3, Apoptotic protease-activating factor 1 (Homo sapiens, UniProt O14727); type: functional
T3 sequence (O14727 whole entry): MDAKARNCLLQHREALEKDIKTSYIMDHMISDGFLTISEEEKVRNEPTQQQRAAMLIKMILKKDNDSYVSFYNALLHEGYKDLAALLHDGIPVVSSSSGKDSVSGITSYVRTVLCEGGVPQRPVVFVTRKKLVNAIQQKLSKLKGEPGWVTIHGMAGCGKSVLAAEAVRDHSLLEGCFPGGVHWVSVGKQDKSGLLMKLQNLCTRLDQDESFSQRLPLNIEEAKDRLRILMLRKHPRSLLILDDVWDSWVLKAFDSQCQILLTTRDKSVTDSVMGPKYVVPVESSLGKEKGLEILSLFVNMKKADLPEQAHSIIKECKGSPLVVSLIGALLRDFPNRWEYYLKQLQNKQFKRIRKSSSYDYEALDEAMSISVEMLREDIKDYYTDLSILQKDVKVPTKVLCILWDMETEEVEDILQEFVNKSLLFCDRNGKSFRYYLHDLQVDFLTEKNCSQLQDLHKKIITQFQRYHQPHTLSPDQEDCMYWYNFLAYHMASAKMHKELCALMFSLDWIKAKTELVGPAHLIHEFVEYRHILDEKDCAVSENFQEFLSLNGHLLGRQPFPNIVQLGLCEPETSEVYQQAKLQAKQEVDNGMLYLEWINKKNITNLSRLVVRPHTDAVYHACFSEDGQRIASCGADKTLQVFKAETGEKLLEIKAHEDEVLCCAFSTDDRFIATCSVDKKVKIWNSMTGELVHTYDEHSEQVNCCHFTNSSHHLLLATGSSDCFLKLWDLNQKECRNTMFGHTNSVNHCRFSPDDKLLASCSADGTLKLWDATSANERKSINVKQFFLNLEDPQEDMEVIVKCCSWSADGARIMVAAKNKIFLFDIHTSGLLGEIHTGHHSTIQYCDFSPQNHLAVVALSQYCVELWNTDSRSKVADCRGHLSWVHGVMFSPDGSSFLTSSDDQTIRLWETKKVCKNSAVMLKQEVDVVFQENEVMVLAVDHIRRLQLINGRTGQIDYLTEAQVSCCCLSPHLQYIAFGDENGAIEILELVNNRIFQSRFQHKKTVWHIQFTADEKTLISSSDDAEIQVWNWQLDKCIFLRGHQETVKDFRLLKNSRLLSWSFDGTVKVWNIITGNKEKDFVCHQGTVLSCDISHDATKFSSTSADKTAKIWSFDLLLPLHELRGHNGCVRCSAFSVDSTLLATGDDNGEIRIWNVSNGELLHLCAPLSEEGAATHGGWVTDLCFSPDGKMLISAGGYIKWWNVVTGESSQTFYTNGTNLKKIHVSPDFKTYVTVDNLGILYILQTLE

[3] = target: T4, Microphthalmia-associated transcription factor (Homo sapiens, UniProt O75030); experiment: reducers of TRPM1 reporter luminescence, concentration series – cell-based, SK-MEL-5, cherry-picked, set 3, MITF inhibitor project, dose response (AID 493073); type: functional;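 further: SK-MEL-5 melanoma cells with luciferase driven by the MITF target TRPM1 promoter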
T4 sequence (O75030 whole entry): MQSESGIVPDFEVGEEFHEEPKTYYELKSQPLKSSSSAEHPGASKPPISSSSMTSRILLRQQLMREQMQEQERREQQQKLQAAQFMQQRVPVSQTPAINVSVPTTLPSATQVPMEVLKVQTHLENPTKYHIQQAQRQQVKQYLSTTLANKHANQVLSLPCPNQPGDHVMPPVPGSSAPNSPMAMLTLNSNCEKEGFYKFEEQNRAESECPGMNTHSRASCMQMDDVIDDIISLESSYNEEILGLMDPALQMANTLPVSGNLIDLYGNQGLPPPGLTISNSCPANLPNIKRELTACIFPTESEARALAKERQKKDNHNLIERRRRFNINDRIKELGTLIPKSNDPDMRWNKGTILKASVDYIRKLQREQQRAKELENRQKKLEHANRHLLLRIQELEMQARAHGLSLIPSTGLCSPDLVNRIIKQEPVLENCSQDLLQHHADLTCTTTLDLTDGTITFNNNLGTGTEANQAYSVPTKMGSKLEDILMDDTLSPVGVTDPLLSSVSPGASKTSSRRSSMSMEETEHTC

[4] = target: T5, DNA repair protein RAD52 homolog (Homo sapiens, UniProt P43351); type: functional, biochemical
T5 sequence (P43351 whole entry): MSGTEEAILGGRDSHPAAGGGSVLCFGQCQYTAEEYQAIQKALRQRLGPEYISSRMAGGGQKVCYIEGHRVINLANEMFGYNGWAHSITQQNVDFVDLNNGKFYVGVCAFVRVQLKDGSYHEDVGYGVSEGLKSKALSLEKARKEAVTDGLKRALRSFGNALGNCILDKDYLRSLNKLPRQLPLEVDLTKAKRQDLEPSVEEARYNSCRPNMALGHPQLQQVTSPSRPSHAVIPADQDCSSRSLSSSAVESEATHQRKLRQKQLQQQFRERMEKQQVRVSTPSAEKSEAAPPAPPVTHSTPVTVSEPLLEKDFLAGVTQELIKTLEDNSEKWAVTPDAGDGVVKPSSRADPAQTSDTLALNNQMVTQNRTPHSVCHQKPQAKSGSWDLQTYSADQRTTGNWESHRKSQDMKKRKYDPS

[5] = viability loss in HeLa cells – cytotoxicity control for MgcRacGAP inhibitor project, dose response (AID 624300); type: functional
[6] = target: T6, Rac GTPase-activating protein 1 (Homo sapiens, UniProt Q9H0H5); experiment: blockers of MgcRacGAP-driven Rac1 GTP hydrolysis – biochemical, ADP Hunter fluorescence, primary and confirmatory, confirmation (AID 624330); type: functional
T6 sequence (Q9H0H5 whole entry): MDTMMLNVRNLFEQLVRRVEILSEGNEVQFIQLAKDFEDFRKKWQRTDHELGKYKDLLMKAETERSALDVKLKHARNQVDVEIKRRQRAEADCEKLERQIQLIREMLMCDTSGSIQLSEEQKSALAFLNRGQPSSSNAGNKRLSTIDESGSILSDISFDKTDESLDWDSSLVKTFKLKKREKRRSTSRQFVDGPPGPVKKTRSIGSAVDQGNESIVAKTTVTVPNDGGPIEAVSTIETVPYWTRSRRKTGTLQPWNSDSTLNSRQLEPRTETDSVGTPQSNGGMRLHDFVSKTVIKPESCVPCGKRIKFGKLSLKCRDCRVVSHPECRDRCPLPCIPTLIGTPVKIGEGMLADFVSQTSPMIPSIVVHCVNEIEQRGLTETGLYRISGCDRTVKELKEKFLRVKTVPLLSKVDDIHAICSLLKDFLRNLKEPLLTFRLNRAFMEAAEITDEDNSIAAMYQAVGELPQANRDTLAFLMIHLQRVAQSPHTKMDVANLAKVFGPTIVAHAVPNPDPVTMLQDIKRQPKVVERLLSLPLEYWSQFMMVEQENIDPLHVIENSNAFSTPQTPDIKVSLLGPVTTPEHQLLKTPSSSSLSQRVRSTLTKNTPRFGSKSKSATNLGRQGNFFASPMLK

[7] = target: Glucose-6-phosphate 1-dehydrogenase (Homo sapiens, UniProt P11413); experiment: inhibition of Homo sapiens G6PD, dose series – biochemical, fluorescence, selectivity assay for P. falciparum G6PD inhibitor project, dose response (AID 504792); type: functional
Sequence of Glucose-6-phosphate 1-dehydrogenase (P11413 whole entry): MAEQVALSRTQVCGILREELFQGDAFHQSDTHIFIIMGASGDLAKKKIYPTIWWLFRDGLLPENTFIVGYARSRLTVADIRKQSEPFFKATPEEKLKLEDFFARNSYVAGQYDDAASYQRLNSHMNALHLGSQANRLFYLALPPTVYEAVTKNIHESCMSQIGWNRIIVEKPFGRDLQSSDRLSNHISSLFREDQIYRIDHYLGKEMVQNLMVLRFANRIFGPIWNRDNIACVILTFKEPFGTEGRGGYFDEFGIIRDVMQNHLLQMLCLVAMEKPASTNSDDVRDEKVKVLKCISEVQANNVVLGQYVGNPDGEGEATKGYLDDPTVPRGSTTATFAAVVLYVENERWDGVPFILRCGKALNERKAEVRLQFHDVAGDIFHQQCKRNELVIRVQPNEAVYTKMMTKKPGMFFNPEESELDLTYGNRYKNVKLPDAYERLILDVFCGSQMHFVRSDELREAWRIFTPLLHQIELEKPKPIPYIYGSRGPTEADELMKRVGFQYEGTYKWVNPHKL

Kallikrein-7 = Kallikrein-7 (Homo sapiens, UniProt P49862); experiment: Fluorescence Intensity-based biochemical primary high throughput dose response assay to identify activators of kallikrein-7 (K7) zymogen.
Sequence of Kallikrein-7 (P49862 whole entry): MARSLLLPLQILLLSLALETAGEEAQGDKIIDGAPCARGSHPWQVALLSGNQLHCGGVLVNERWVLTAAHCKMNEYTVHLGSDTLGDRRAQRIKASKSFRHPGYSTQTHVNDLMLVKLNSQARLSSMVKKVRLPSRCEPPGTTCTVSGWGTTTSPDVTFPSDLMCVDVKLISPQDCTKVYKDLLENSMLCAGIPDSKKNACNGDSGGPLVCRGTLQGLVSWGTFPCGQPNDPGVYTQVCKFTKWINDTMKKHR

SMILES | AC50 [1] | EC50 (Protein RecA) | AC50 (INS1) | IC50 [2] | AC50 [3] | AC50 [4] | CC50 [5] | IC50 [6] | IC50 [7] | EC50 (Kallikrein-7)
O=C(NC1=C(Nc2ccc(Cl)cc2)C(=O)c2ccccc2C1=O)c1ccccc1 | 10.4 µM (active) | 6.55 µM (active) | 6.9 µM (active) | 39.7 µM (active) | 0.93 µM (active) |  |  |  |  | 
CN(C)/C=N/c1ccc2[nH]c3c4ccccc4nc-3cc2c1 |  |  |  | 30.7 µM (active) |  | 3.13 µM (active) | 100 µM (active) | 52.8 µM (active) | > 80 µM (inactive) | > 2.57 µM (active)
